The values below come from patent US20230123497A1, “NOVEL ANTIBACTERIAL HYDROGELS” (NewSouth Innovations Pty Limited, priority 2020, published 2023).

Values joined by “and” are separate entries in the source; they are usually repeats but may differ in a detail not shown here. Identical values can stand only once.

What all share (type): physicochemical
Data set [1] can be described thus: Frequency sweep test (FST), rheometer. The settings on record: for G′: 1% w/v. The protocol:
The mechanical properties of anthranilamide-based cationic hydrogels were assessed using an Anton Paar MCR 302 rheometer with a 25 mm stainless parallel plate configuration.
(§1) Initially, 1 mL of hydrogels were prepared from short peptides 11-13 and 15-19 in glass vials at concentration of 1% w/v. These vials were warmed using a heat gun to transform the hydrogel to the solution phase. Subsequently, 560 μL of the resulting solutions were cast onto the rheometer plate. The other plate was lowered to the measuring position ([…]) and the hydrogel was allowed to stand for 3 hours for the gel to form. The FST was conducted at fixed strain of 0.1% and frequency ranging from 10 Hz to 0.01 Hz. Meanwhile, the strain sweep test (SST) was performed at a frequency of 1 Hz using 0.1% strain to 100% strain. The rheology data were shown as the average of three repeats for each data point.
(§2) The mechanical properties of hydrogels 4 (formed via addition of NaCl or GdL) before and after blue light irradiation were also assessed using an Anton Paar MCR 302 rheometer with a 25 mm stainless parallel plate configuration. Prior to the hydrogel formation, 560 μL of solution phase of short peptide 4 at 1% w/v were transferred onto a rheometer plate. Meanwhile, hydrogel 4, which had been exposed to blue light, was warmed using a heat gun, to provide its solution phase. Subsequently, 560 μL of this solution phase was cast onto the rheometer plate. The other plate was lowered to the measuring position ([…]) and the hydrogel was allowed to stand for 3 hours for the gel to form. The frequency sweep test (FST) was conducted at fixed strain of 0.1% and frequency ranging from 10 Hz to 0.01 Hz. Meanwhile, the SST was performed at a frequency of 1 Hz using 0.1% strain to 100% strain. In addition, the temperature sweep test was conducted to obtain transition glass (Tg) using fixed frequency of 1 Hz and fixed strain of 0.1% with temperature ramping from 25° C. to 90° C. The rheology data were shown as the average of three repeats for each data point.
In the FST, samples were measured over a range of oscillation frequencies (0.1-10 rad/s) at fixed strain, temperature, and oscillation amplitude. Higher frequencies simulate fast motion on a short time-scale, while low frequencies simulate slow motion on a long time-scale, or rest. All of the hydrogels made from the anthranilamide-based short cationic peptides, which passed the vial inversion test, were subjected to the FST using a rheometer to precisely assess their mechanical properties.

The nature of data set [2]: Hydrogel formation, vial inversion test (critical gel concentration). On the set-up: key: VS: viscous solution; CG: clear gel. The text has this: (§3) The simplest method to determine whether a suitable hydrogel has formed is to use the vial inversion test. Through visual inspection, a material can be categorised as a solution, viscous solution, partial gel, or solid-like gel. A stable hydrogel needs to be able to hold its weight and/or maintain its shape during this assessment.
(§4) The critical gel concentration (CGC) is defined as the minimum mass of a short peptide required to provide a self-supporting hydrogel per unit volume in the vial inversion test (measured as % w/v).
(§5) Pre-weighed samples of short peptide 4 were prepared in aluminium-covered glass vials and Milli-Q water and 2 equivalents of NaOH (1.0 M) were added to make up concentrations of 1% w/v. The resulting suspensions were vortexed for 5 minutes to provide clear yellow solutions with pH 11.
(§6) To create a high ionic strength environment, 1 equivalent of NaCl was added and the vial was left to stand without disturbance for 3 hours at room temperature. Meanwhile, as an attempt to form a hydrogel by lowering the pH, 2 equivalents of GdL were added to a high pH solution of 4 followed by gentle mixing. These vials were inverted and allowed to stand overnight to confirm the hydrogel formation.
(§7) The formation of hydrogel 4 via the solvent switch method was conducted by dissolving short peptide 4, in an aluminium covered glass vial, with either 50% methanol, ethanol, or dimethyl sulfoxide (DMSO). Respective amounts of Mili-Q water were added to make up concentrations of 1% w/v.
(§8) In addition, gelation time was defined as the time (hours) required for 1% w/v of short peptide 4 to form a hydrogel which can be turned upside down without collapsing.
(§9) Pre-weighed samples of short peptides 10a-17a, 18, and 19 were prepared in glass vials with 10 mm internal diameter, and Milli-Q water was added to make up concentrations of 1% w/v. The resulting suspensions of short peptides 13, 18, and 19 (as ammonium or guanidinium salts) were slowly warmed until all solid had completely dissolved. GdL (1.5 to 2.0 equivalents) was added to the suspension of short peptides 10a-17a, before heat was applied. To create a high ionic strength environment, 1-5 equivalents of NaCl was added to the viscous solution of 10a-17a to make the total volume up to 1 mL, followed by gentle mixing, and the vial was left to stand without disturbance for 3 hours at room temperature. Subsequently, these vials were inverted and allowed to stand overnight to confirm hydrogel formation.

Experiment in data set [3]: as above
From the text: as §3, §4, §5, §6, §7, §8, §9

Data set [4] is described as follows: Atomic force microscopy (AFM) of fibers. The protocol: Hydrogels of NO-releasing short peptide 4 (1 drop), at high pH, low pH, and after irradiation, were cast onto a mica substrate. Hydrogels of cationic short peptides 11-13 and 15-19 were prepared at their CGC, 2× below, and 4× below CGC in glass vials. Prior to gelation, one drop of the cationic short peptide solutions was cast onto a mica substrate. Using a glass slide, each droplet was carefully spread and was left to dry overnight before imaging. Imaging was performed using a Bruker Multimode 8 Atomic Force Microscope in Scanasyst Air (PeakForce Tappings) mode, which is based on tapping mode AFM. To prevent damage of soft samples, the imaging parameters were constantly optimized through the force curves that were collected. Bruker Scanasyst-Air probes were used, with a spring constant of 0.4-0.8 N·m^−1 and a tip radius of 2 nm.
To gain some insight on the mechanism of antibacterial action, the released solutions from hydrogel made of primary ammonium 11 were directly cast onto a mica substrate. […] After gently spreading using a glass slide and left to dry overnight, these samples were imaged using a similar manner as describe above.

The nature of data set [5]: Strain sweep test (SST), linear viscoelastic region. The procedure:
as §1, §2
To observe the structural decay in anthranilamide-based cationic hydrogels, the SST was performed by imposing a non-linear strain. SST provides information about the viscoelastic properties of a hydrogel through determination of its linear viscoelastic region (LVER). […] Here, the LVER reported for each hydrogel represents the deviation of storage modulus (G′) from linearity, known as yield point (γy). Yield points have been reported to reflect a point where the rigidity of a hydrogel starts to weaken.

[6] abbreviates: hydrogels 11-13 at 1% w/v, FST fixed strain 0.1%.

`O=C(Nc1ccccc1C(=O)N[C@@H](Cc1ccccc1)C(=O)N[C@@H](Cc1ccccc1)C(=O)O)c1ccc([N+](=O)[O-])c(C(F)(F)F)c1` [Compound 4, (2-(4-Nitro-3-(trifluoromethyl)benzamido)benzoyl)-L-phenylalanyl-L-phenylalanine]: the “G′/G″” value in data set [1] (hydrogel 4 at pH 5.5-6) amounted to 17; in data set [1] (hydrogel 4 at pH 11), 12. Moreover, the “G″” value in data set [1] (hydrogel 4 at pH 5.5-6) is listed as 0.6 kPa; in data set [1] (hydrogel 4 at pH 11), 1.1 kPa. In addition, the “G′” value in data set [1] (hydrogel 4 at pH 5.5-6 (low pH, GdL), before irradiation) is recorded as 10.2 kPa; in data set [1] (hydrogel 4 at pH 11 (high pH, NaCl)), 13.2 kPa. For the same compound, the “G′ after irradiation” value in data set [1] (hydrogel 4 irradiated (λ=440-450 nm) for 2 hours, after NO release) is 4.9 kPa. Moreover, the “Remarks (gel state)” value is recorded as “VS” in data set [2] (trigger NaOH), “CG” in data set [2] (trigger NaOH + GdL) and “CG” in data set [2] (trigger NaOH + NaCl). The “Time (gelation time)” value in data set [3] (solvent switch, DMSO 50 % v/v, 1% w/v) is on record as “Immed”; in data set [3] (solvent switch, EtOH 5 % v/v), “Immed”; in data set [3] (solvent switch, EtOH 50 % v/v, 1% w/v), “Immed”; in data set [3] (solvent switch, MeOH 50 % v/v, 1% w/v), “Immed”. In addition, the “CGC (critical gel concentration)” value worked out at 0.4 % w/v in data set [3] (solvent switch, co-solvent DMSO 50 % v/v); 0.4 % w/v in data set [3] (solvent switch, co-solvent EtOH 50 % v/v); 0.4 % w/v in data set [3] (solvent switch, co-solvent MeOH 50 % v/v); 0.2 % w/v in data set [3] (trigger NaOH + GdL (pH switch)); 0.2 % w/v in data set [3] (trigger NaOH + NaCl). Besides, the “Time (self-assembly/gelation)” value in data set [3] (trigger NaOH) is on record as 48 h; in data set [3] (trigger NaOH + GdL), 1 h; in data set [3] (trigger NaOH + NaCl) it was 3 h. Further, the pH in data set [3] (trigger NaOH) is 11; in data set [3] (trigger NaOH + GdL), 5.5 and 5.2; in data set [3] (trigger NaOH + NaCl), 11. Further, the “diameter of larger (bundled) fibers” value in data set [4] (hydrogel 4, before irradiation) worked out at 104±4 nm. In addition, the fiber diameter in data set [4] (hydrogel 4 formed at high pH) turned out to be 40±3 nm; in data set [4] (hydrogel 4 formed at low pH) it was 43±5 nm. Also, in data set [4] (hydrogel 4 irradiated for 2 hours (blue light)), the “fiber bundle diameter after irradiation” value was determined as 68±6 nm. The “% strain (LVER)” value in data set [5] (hydrogel 4 at pH 5.5-6) is reported as 1.4%; in data set [5] (hydrogel 4 at pH 11) it was 1.2%.
As for `NCCCNC(=O)[C@H](Cc1ccccc1)NC(=O)c1ccccc1NC(=O)c1ccc2ccccc2c1` [Compound 11], the “G′/G″ ratio” value in data set [1] (hydrogels 11-13 at 1% w/v) came out at 11.9. Also, in data set [1] (setting [6]), the “G′ (modulus storage)” value is on record as 0.83 kPa and the “G″ (modulus loss)” value came out at 0.07 kPa. In addition, in data set [2] (cationic peptides 10-14, vial inversion test), the “Remarks (gel state)” value is “CG”. The compound further came in with a CGC in data set [3] (cationic peptides 10-14, triggers GdL, heat and NaCl (13: heat and NaCl)) of 0.1 % w/v. Further, the pH in data set [3] (hydrogels of cationic peptides 10-14) worked out at 5.5. Moreover, in data set [4] (hydrogel after addition of salt, 4× below CGC), the fiber bundle diameter worked out at 115±5 nm. The “diameter of fibers in the released solution” value in data set [4] (solution released from hydrogel 11, below CGC) stood at 47±4.9 nm. Further, in data set [4] (viscous solution without salt, 0.05% w/v), the fiber diameter is on record as 74±6 nm. The “LVER (linear viscoelastic region)” value in data set [5] (hydrogels at 1% w/v, SST at 1 Hz, 0.1% to 100% strain) was 0.98 ± 0.05%.
